Data published in ChEMBL document CHEMBL6153023, “Tubulin/HDAC dual-target inhibitors: Insights from design strategies, SARs, and therapeutic potential” (Eur J Med Chem, 2025).

Key:
Tubulin [1] = assay: Inhibition of tubulin polymerization (unknown origin); assay type: protein-complex assay, Homo sapiens
A549 [2] = assay: Cytotoxicity against human A549 cells assessed as reduction in cell growth measured for 72 hrs by MTT assay; assay type: functional, cell-based; details: A549, 72 h
Histone deacetylase 2 [3] = molecular target: T1, Histone deacetylase 2 (Homo sapiens, UniProt Q92769); assay: Inhibition of human recombinant HDAC2 extracted from baculovirus infected Insect cells using Ac-Lys-Tyr-Lys (acetyl)-AMC as substrate incubated for 24 hrs by fluorescence analysis; design: species or system Insect cell
T1 sequence (Q92769 whole entry): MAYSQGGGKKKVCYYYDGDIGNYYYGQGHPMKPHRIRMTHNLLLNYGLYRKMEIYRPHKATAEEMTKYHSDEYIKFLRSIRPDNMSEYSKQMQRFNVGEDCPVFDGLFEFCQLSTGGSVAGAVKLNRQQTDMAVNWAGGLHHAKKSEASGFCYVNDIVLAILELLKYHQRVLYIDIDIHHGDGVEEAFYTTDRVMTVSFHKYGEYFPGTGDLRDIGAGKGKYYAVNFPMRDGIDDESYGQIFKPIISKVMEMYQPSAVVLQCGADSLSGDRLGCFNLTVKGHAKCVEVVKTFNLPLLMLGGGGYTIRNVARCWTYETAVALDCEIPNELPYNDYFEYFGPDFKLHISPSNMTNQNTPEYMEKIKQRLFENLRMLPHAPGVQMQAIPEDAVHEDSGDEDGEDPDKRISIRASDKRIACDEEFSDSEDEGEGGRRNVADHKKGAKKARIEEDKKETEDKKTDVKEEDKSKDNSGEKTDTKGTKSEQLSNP

Histone deacetylase 1 [4] = molecular target: T2, Histone deacetylase 1 (Homo sapiens, UniProt Q13547); assay: Inhibition of HDAC1 (unknown origin)
T2 sequence (Q13547 whole entry): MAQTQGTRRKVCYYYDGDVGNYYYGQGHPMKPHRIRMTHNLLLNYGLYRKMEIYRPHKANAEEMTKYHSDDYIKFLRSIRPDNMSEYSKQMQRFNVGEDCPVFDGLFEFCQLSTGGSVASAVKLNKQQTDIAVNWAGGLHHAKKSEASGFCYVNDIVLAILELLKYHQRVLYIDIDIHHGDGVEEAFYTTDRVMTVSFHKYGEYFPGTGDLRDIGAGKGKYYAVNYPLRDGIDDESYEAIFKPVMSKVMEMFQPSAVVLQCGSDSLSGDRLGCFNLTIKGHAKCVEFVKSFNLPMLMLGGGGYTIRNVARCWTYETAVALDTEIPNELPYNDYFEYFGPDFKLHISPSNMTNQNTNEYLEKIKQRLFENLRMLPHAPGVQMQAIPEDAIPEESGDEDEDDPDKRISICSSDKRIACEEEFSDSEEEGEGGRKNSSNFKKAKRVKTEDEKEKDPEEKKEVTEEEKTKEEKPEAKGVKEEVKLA

KYSE-450 = assay: Antiproliferative activity against human KYSE-450 cells assessed as reduction in cell viability by MTT assay; assay type: functional, cell-based
MGC-803 = assay: Antiproliferative activity against human MGC-803 cells assessed as reduction in cell viability by MTT assay; assay type: functional, cell-based
HCT-116 [5] = assay: Antiproliferative activity against human HCT-116 cells assessed as reduction in cell viability by MTT assay; assay type: functional, cell-based
518A2 = assay: Antiproliferative activity against human 518A2 cells assessed as reduction in cell viability incubated for 72 hrs by MTT assay; assay type: functional, cell-based; details: 518A2, 72 h
Histone deacetylase 1 [6] = molecular target: T2, Histone deacetylase 1; assay: Inhibition of human recombinant FLAG/His-tagged HDAC1 using fluorogenic substrate by fluorescence microplate reader assay
UO-31 = assay: Antiproliferative activity against human UO-31 cells assessed as reduction in cell viability by MTT assay; assay type: functional, cell-based
[7] = molecular target: T3, Protein deacetylase HDAC6 (Homo sapiens, UniProt Q9UBN7); assay: Inhibition of FLAG/His-tagged human recombinant HDAC6 extracted from baculovirus infected Sf9 cells […] by fluorescence based analysis
T3 sequence (Q9UBN7 whole entry): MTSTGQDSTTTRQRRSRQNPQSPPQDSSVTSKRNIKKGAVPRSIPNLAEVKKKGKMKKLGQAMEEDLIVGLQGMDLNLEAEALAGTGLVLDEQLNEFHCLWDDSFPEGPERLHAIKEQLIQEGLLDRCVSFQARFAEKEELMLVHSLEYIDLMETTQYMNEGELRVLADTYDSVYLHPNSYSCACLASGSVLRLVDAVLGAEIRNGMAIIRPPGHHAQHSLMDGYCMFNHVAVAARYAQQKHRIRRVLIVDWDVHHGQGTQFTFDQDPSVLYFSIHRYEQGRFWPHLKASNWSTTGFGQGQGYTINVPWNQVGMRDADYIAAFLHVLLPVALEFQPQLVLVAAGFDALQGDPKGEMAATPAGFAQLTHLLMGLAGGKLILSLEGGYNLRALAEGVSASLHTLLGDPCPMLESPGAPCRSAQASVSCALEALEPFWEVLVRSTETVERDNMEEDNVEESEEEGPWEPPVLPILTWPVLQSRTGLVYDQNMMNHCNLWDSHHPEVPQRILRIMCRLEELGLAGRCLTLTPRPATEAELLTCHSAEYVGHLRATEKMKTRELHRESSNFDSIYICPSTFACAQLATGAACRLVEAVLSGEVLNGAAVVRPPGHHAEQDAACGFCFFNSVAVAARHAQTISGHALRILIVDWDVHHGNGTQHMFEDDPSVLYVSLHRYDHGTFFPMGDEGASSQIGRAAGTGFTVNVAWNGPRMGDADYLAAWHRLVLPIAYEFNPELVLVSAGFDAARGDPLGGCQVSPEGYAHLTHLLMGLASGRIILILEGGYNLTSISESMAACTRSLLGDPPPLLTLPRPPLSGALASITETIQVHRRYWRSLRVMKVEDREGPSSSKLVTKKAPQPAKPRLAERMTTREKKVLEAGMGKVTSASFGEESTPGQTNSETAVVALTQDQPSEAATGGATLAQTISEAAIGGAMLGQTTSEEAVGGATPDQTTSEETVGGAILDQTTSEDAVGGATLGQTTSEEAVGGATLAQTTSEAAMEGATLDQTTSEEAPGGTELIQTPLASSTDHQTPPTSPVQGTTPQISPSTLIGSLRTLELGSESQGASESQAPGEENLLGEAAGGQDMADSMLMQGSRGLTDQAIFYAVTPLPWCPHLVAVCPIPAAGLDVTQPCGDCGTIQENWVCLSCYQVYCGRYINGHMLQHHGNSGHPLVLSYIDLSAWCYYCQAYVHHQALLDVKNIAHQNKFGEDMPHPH

T47D = assay: Antiproliferative activity against human T47D cells assessed as reduction in cell viability by MTT assay; assay type: functional, cell-based
Tubulin [8] = assay: Inhibition of tubulin polymerization (unknown origin) by fluorescence based assay; assay type: protein-complex assay, Homo sapiens
PC-3 [9] = assay: Antitumor activity against human PC-3 cells xenografted in nude mouse assessed as inhibition of tumor growth at 100 mg/kg, ip administered once daily for 7 days relative to control; assay type: functional; details: PC-3, 168 h, time 7 day, read-out: TGI
A549 [10] = assay: Antiproliferative activity against human A549 cells assessed as reduction in cell viability incubated for 48 hrs by MTT assay; assay type: functional, cell-based; details: A549, 48 h
HL-60 = assay: Antitumor activity against human HL-60 cells xenografted in nude mouse assessed as inhibition of tumor growth at 100 mg/kg, ip administered once daily for 7 days relative to control; assay type: functional; details: HL-60, 168 h, time 7 day, read-out: TGI
HCT-116 [11] = assay: Antiproliferative activity against human HCT-116 cells assessed as reduction in cell viability incubated for 48 hrs by MTT assay; assay type: functional, cell-based; details: HCT-116, 48 h
[12] = molecular target: T3, Protein deacetylase HDAC6; assay: Inhibition of HDAC6 (unknown origin)
PC-3 [13] = assay: Antiproliferative activity against human PC-3 cells assessed as reduction in cell viability incubated for 48 hrs by MTT assay; assay type: functional, cell-based; details: PC-3, 48 h
[14] = molecular target: T3, Protein deacetylase HDAC6; assay: Inhibition of human recombinant HDAC6 using Boc-Lys(Ac)-AMC as substrate preincubated for 15 mins followed by substrate addition and measured after 60 mins by fluorescence based microplate reader analysis
Histone deacetylase 2 [15] = molecular target: T1, Histone deacetylase 2; assay: Inhibition of human recombinant HDAC2 extracted from baculovirus infected Sf9 insect cells using Ac-Leu-Gly-Lys(Ac)-AMC as substrate preincubated for 30 mins followed by substrate addition measured after 1 hr by fluorescence based analysis
Homo sapiens [16] = organism: Homo sapiens; assay: Selectivity index, ratio of IC50 for inhibition of human recombinant HDAC1 to IC50 for inhibition of human recombinant HDAC6
Homo sapiens [17] = organism: Homo sapiens; assay: Selectivity index, ratio of IC50 for inhibition of human recombinant HDAC2 to IC50 for inhibition of human recombinant HDAC6
Histone deacetylase 1 [18] = molecular target: T2, Histone deacetylase 1; assay: Inhibition of human recombinant HDAC1 using Boc-Lys(Ac)-AMC or Boc-Lys(Tfa)-AMC as substrate incubated for 1 hr by fluorescence based analysis
HepG2 = assay: Antiproliferative activity against human HepG2 cells assessed as reduction in cell viability incubated for 72 hrs by MTT assay; assay type: functional, cell-based; details: HepG2, 72 h
MCF7 [19] = assay: Antiproliferative activity against human MCF7 cells assessed as reduction in cell viability incubated for 72 hrs by MTT assay; assay type: functional, cell-based; details: MCF7, 72 h
A2780 = assay: Antitumor activity against human A2780 cells xenografted in BALB/c nude mouse assessed as tumor growth inhibition at 25 mg/kg, ip administered once daily for 1 week relative to control; assay type: functional; details: A2780, 168 h, time 1 weeks, read-out: TGI
HCT-116 [20] = assay: Antitumor activity against human HCT-116 cells xenografted in BALB/c nude mouse assessed as tumor growth inhibition at 25 mg/kg, ip administered once daily for 1 week relative to control; assay type: functional; details: HCT-116, 168 h, time 1 weeks, read-out: TGI
MCF7 [21] = assay: Antitumor activity against human MCF7 cells xenografted in BALB/c nude mouse assessed as tumor growth inhibition at 25 mg/kg, ip administered once daily for 1 week relative to control; assay type: functional; details: MCF7, 168 h, time 1 weeks, read-out: TGI
[22] = Inhibition of bovine brain tubulin polymerization measured after 20 mins by spectrophotometric analysis; design: species or system Bos taurus
Tubulin (Homo sapiens) = Tubulin (Homo sapiens) (UniProt P68371+Q9H4B7+P0DPH7+P68366+Q13509+Q71U36+P04350+Q3ZCM7+P07437+P68363+Q9BQE3+Q6PEY2+Q13885+Q9BVA1+Q9BUF5); assay: Inhibition of tubulin polymerization (unknown origin) at 10 uM relative to control; assay type: protein-complex assay

COc1ccc(-c2cccc(-c3cc(OC)c(OC)c(OC)c3)n2)cc1CCC(=O)NO
IC50 (Tubulin [1]): 117 nM

COc1cc([C@@H]2c3cc4c(cc3C[C@H]3COC(=O)[C@@H]32)OCO4)cc(OC)c1OC(=O)CC(=O)NCc1ccc(C(=O)Nc2ccccc2N)cc1
IC50 (A549 [2]): 40 nM

COc1cc([C@@H]2c3cc4c(cc3C[C@H]3COC(=O)[C@@H]32)OCO4)cc(OC)c1OC(=O)CC(=O)Nc1ccc(C(=O)Nc2ccccc2N)cc1
IC50 (Histone deacetylase 2 [3]): 1730 nM

COc1ccc(CN(C(=O)CC2CCC(C(=O)Nc3ccccc3N)CC2)c2cc(OC)c(OC)c(OC)c2)cc1O (stereo not given)
IC50 (Histone deacetylase 1 [4]): 525 nM | IC50 (Tubulin [1]): 3640 nM | IC50 (KYSE-450): 254 nM | IC50 (MGC-803): 39 nM | IC50 (HCT-116 [5]): 172 nM

COc1ccc(-c2ocnc2-c2cc(Br)c(OC)c(OC)c2)cc1OCCCC(=O)NO
IC50 (518A2): 710 nM

CNC(=O)CCCCOc1nc(-c2ccc(OC)cc2)cc(-c2cc(OC)c(OC)c(OC)c2)c1C#N
IC50 (Histone deacetylase 1 [6]): 73.2 nM | IC50 (UO-31): 3520 nM | IC50 [7]: 84 nM | IC50 (T47D): 5500 nM | IC50 (Tubulin [8]): 3520 nM

COc1ccc2c(C(=O)c3cc(OC)c(OC)c(OO)c3)c[nH]c2c1
IC50 (Tubulin [1]): 2800 nM

COc1ccc2c(C(=O)c3cc(OC)c(OC)c(OO)c3)cn(S(=O)(=O)c3cccc(/C=C/CC(=O)NO)c3)c2c1
inhibition in vivo at 100 mg/kg (PC-3 [9]): 31.1% | IC50 (A549 [10]): 73 nM | inhibition in vivo at 100 mg/kg (HL-60): 40.9% | IC50 (HCT-116 [11]): 44 nM | IC50 [12]: 276 nM | IC50 (PC-3 [13]): 33 nM

COc1ccc2c(C)c(C(=O)c3cc(OC)c(OC)c(OC)c3)oc2c1
IC50 (Tubulin [1]): 620 nM

COc1ccc2c(C(=O)c3cc(OC)c(OC)c(OO)c3)cn(Cc3ccc(C(=O)NO)cc3)c2c1
IC50 [14]: 65 nM | IC50 (Histone deacetylase 2 [15]): 1410 nM | Ratio IC50 (Homo sapiens [16]): 8.89 | Ratio IC50 (Homo sapiens [17]): 21.8 | IC50 (Histone deacetylase 1 [18]): 573 nM

COc1cc(/C=C/C(=O)c2ccc(NC(=O)c3ccccc3CN3C(=O)c4ccccc4C3=O)cc2)cc(OC)c1OC
IC50 (HepG2): 1620 nM | IC50 (Tubulin [1]): 2320 nM | IC50 (MCF7 [19]): 1880 nM

COc1ccc(N(C)c2nc(C)nc3ccccc23)cc1OCCCC(=O)NO
inhibition in vivo at 25 mg/kg (A2780): 77.4% | inhibition in vivo at 25 mg/kg (HCT-116 [20]): 60.4% | inhibition in vivo at 25 mg/kg (MCF7 [21]): 50.5%

COc1cccc(C(=O)c2oc3cc(OC)c(C#CC(=O)NO)cc3c2C)c1
IC50 [22]: 420 nM

COc1ccc(-c2cccc(-c3cc(OC)c(OC)c(OC)c3)n2)cc1O
inhibition (Tubulin (Homo sapiens)): 32%
